Test results: patent publication US4656190A, “Indene derivatives and their use as PAF-antagonists” (Merck & Co., Inc., priority 1983, dated 1987)
Values joined by “and” are separate entries in the source; they are usually repeats but may differ in a detail not shown here. Identical values can stand only once. Like-named read-outs stand apart in the source and are kept apart here.

Key:
[1] = target: T1, PAF specific receptor binding site on rabbit platelet plasma membranes (Oryctolagus cuniculus, UniProt G1TEI7); test: Inhibition of 3H-PAF binding to rabbit platelet plasma membranes
T1 construct: from tissue; host or cells: rabbit platelets (plasma membrane suspension)
Description: In vitro, they inhibit PAF-induced functions in both the cellular and tissue levels by disturbing the PAF binding to its specific receptor site. The ability of a compound of formula (I) to inhibit the PAF binding to its specific receptor binding site on rabbit platelet plasma membranes was measured by an assay recently developed by us.
The inhibition of H^3 -PAF binding to the rabbit platelet plasma membrane by a PAF-antagonist of Formula (I) was determined by a method employing isotropic labeling and filtration techniques. Generally, a series of Tris-buffered solutions of the selected antagonist at predetermined concentrations were prepared. Each of these solutions contains 1 pmole of ^3 H-PAF, a known amount of the test antagonist, and a sufficient amount of the pH 7.5 Tris-buffer solution (10 mM Tris, 0.25% bovine serum albumin, and 150 mM NaCl per ml water) to make the final volume of 1 ml. After adding into a set of test tubes each with 100 μg of the platelet plasma membrane suspension (S. B. Hwang, et al., Biochemistry, 22, 4756 (1983)) and one of the Tris-buffer solutions described above, the resulting mixture in each test tube was incubated at 0° C. for about one hour or until the reaction was complete. Two control samples, one of which (C1) contains all the ingredients described above except the antagonist and the other (C2) contains C1 plus a 1000-fold excess of unlabeled PAF, were also prepared and incubated simultaneously with the test samples. After the incubation was completed, the contents of each test tube were filtered under vacuo through a Whatman GF/C fiberglass filter and the residue washed rapidly several times with a total of 20 ml cold (0°-5° C.) Tris-buffer solution. Each washed residue was then suspended in 10 ml scintillation solution (Aquasol 2, New England Nuclear, Connecticut) and the radioactivity was counted in a Packard Tri-Carb 460CD Liquid Scintillation System. Defining the counts from a test sample as "Total binding with antagonist"; the counts from the control sample C1, as "Total binding C1 "; and the counts from the control sample C2 as "non-specific binding C2 ", the percent inhibition of each test antagonist can be determined by the following equation: [formula]

[2] = tested on: PAF-induced cutaneous vascular permeability; test: In vivo assay: inhibition of PAF-induced increase of cutaneous vasopermeability in guinea pigs after oral dosing; conditions: guinea pig
Description: The specific PAF-antagonistic activities are further established by in vivo assays following the protocol (modified procedure of Humphrey et al., Lab. Investigation, 46, 422 (1982)) described below:
Protocol for the Evaluation of the Oral Activity of
PAF Antagonists or the Inhibition of PAF-Induced
Increase of Vasopermeability by PAF-Antagonists
I. Animal species: 5 guinea pigs (400-500 g)
(4.) Ground and suspend a PAF antagonist of formula
(I) with intensive sonication in 3 ml of 0.5%
aqueous methylcellulose solution.
(5.) Administer orally to each of the animals T1,
T2, T3 and T4 an appropriate amount (in
terms of mg/kg of bodyweight) of the antagonist
solution from 4), except the control animal
(6.) Forty minutes after the oral administration,
(7.) After 20 minutes or when the anesthetics became
effective, inject intracardially to each animal
and inject intracutaneously, in duplicate 0.1
ml of a PAF solution in Tris-buffer or 0.1 ml
of the Tris-buffer itself (control) according
(9.) Wait for 30 minutes or until the blue color
(13.) In the meantime, extract a 100 μl sample of
(15.) Measure the absorbance of each supernatant from
Palo Alto, CA). Calculate the amount of Evans
blue in each skin sample in terms of the volume
(μl) of the exuded blood plasma according to
the following equation: […]
(16.) Draw a plasma exudation curve
(17.) Calculate the percent inhibition of PAF-induced
cutaneous vascular permeability from measuring
the area under the plasma exudation curve of
the control animal (AC) and that of an
animal treated orally with an antagonist
(AD), for example T1, according to the […]

[3] = Table 1, E (trans), read-out: % Inhibition of PAF Binding
[4] = Table 1, E (trans), dose 5 μM, read-out: % Inhibition of PAF Binding
[5] = Table II, Z (cis), dose 5 μM, read-out: % Inhibition of PAF Receptor
[6] = Table II, Z (cis), read-out: % Inhibition of PAF Receptor

T1 sequence (G1TEI7 1-342): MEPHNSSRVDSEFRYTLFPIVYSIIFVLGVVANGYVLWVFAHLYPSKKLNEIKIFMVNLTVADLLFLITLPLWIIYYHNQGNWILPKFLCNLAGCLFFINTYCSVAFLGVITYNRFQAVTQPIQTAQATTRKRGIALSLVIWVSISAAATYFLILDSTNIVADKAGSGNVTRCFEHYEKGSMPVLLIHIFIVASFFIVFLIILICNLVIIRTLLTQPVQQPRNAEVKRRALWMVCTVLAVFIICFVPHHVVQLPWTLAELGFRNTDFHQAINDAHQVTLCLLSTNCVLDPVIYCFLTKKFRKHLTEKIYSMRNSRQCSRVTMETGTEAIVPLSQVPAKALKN

COCCC1=C(C)/C(=C\c2ccc(S(N)(=O)=O)cc2)c2ccc(F)cc21 [E CH2CH2OCH3 / SO2NH2 / F, E 1-(4-aminosulfonylphenyl)methylene-5-fluoro-2-methyl-1H-3-indenyl-(2-methoxy)ethane]
inhibition at 5 µM ([1]; read-out: % Inhibition of PAF Binding): 61%

COc1ccc2c(c1)C(CCO)=C(C)/C2=C\c1ccc(S(N)(=O)=O)cc1 [E CH2CH2OH / SO2NH2 / OCH3, E 1-(4-aminosulfonyl)methylene-5-methoxy-2-methyl-1H-3-indenyl-(2-hydroxy)ethane]
inhibition at 1 µM [1, 3]: 59%

COc1ccc2c(c1)C(CCSc1ccccc1)=C(C)/C2=C\c1ccc(S(N)(=O)=O)cc1 [E CH2CH2SC6H5 / SO2NH2 / OCH3, E 1-(4-aminosulfonylphenyl)methylene-5-methoxy-2-methyl-1H-3-indenyl-(2-phenylthio)ethane]
inhibition at 5 µM [1, 4]: 56%

COc1ccc2c(c1)C(CC[S+](C)[O-])=C(C)/C2=C\c1ccc(S(N)(=O)=O)cc1 (stereo not drawn) [E CH2CH2SOCH3 / SO2NH2 / OCH3, E 1-(4-aminosulfonylphenyl)methylene-5-methoxy-2-methyl-1H-3-indenyl-(2-methylsulfinyl)ethane]
inhibition at 0.5 µM [1, 3]: 24% | inhibition at 5 µM [1, 4]: 74%

COC(=O)CC1=C(C)/C(=C\c2ccc(OC)c(OC)c2)c2ccc(OC)cc21 [E CH2COOCH3 / 3,4-dimethoxy / OCH3, E methyl 1-(3,4-dimethoxyphenyl)methylene-5-methoxy-2-methyl-1H-3-indenylacetate]
inhibition at 1 µM [1, 3]: 45% | inhibition at 10 µM [1, 3]: 87%

COC(=O)CC1=C(C)/C(=C\c2ccc(S(N)(=O)=O)cc2)c2ccc(F)cc21 [E CH2COOCH3 / SO2NH2 / F, E-Methyl 1-(4-aminosulfonylphenyl)methylene-5-fluoro-2-methyl-1H-3-indenylacetate]
inhibition at 1 µM [1, 3]: 60%

CNS(=O)(=O)c1ccc(/C=C2\C(C)=C(CC(=O)OC)c3cc(F)ccc32)cc1 [E CH2COOCH3 / SO2NHCH3 / F, E Methyl 1-[4-(N-methylaminosulfonyl)phenyl]-methylene-5-fluoro-2-methyl-1H-3-indenylacetate]
inhibition at 1 µM [1, 3]: 56%

CNS(=O)(=O)c1ccc(/C=C2\C(C)=C(CC(=O)OC)c3cc(OC)ccc32)cc1 [E CH2COOCH3 / SO2NHCH3 / OCH3, E Methyl 1-(4-(N-methylaminosulfonyl)phenyl)methylene-5-methoxy-2-methyl-1H-3-indenylacetate]
inhibition at 0.5 µM [1, 3]: 67% | inhibition at 5 µM [1, 4]: 100%

COC(=O)CC1=C(C)/C(=C\c2ccc([S+](C)[O-])cc2)c2ccc(F)cc21 (stereo not drawn) [E CH2COOCH3 / SOCH3 / F]
inhibition at 5 µM [1, 4]: 45%

COc1ccc2c(c1)C(CC(=O)O)=C(C)/C2=C\c1ccc(S(N)(=O)=O)cc1 [E CH2COOH / SO2NH2 / OCH3, 1-(4-aminosulfonylphenyl)methylene-5-methoxy-2-methyl-1H-3-indenyl acetic acid]
inhibition at 5 µM [1, 4]: 4%

COc1ccc2c(c1)C(CCn1ccnc1)=C(C)/C2=C\c1ccc(S(N)(=O)=O)cc1 [E drawing 16 / SO2NH2 / OCH3]
inhibition at 0.1 µM ([1]; Table 1, E (trans), dose 0.1 μM, read-out: % Inhibition of PAF Binding): 17% | inhibition at 0.5 µM [1, 3]: 31% | inhibition at 1 µM [1, 3]: 45% | inhibition at 5 µM [1, 4]: 90%

COc1ccc2c(c1)C(CCn1ccnc1)=C(C)/C2=C\c1ccc(S(N)(=O)=O)cc1 [E drawing 22 / SO2NH2 / OCH3]
% In Vivo Inhibition of PAF Receptor ([2]; 45 mg/kg): 52% | % In Vivo Inhibition of PAF Receptor ([2]; 50 mg/kg): 59%

CSc1ccc(/C=C2/C(C)=C(CCNC(C)=O)c3cc(F)ccc32)cc1 [Z CH2CH2NHCOCH3 / SCH3 / F]
inhibition at 5 µM [1, 5]: 50%

CC(=O)NCCC1=C(C)/C(=C/c2ccc(S(C)(=O)=O)cc2)c2ccc(F)cc21 [Z CH2CH2NHCOCH3 / SO2CH3 / F, Z 1-(4-methylsulfonylphenyl)methylene-5-fluoro-2-methyl-1H-3-indenyl-(2-acetamido)ethane]
% Inhibition of PAF Receptor ([1]; Table II, Z (cis), dose 5 μM): 68% and 90%

CC(=O)NCCC1=C(C)/C(=C/c2ccc([S+](C)[O-])cc2)c2ccc(F)cc21 (stereo not drawn) [Z CH2CH2NHCOCH3 / SOCH3 / F, Z 1-(4-methylsulfinylphenyl)methylene-5-fluoro-2-methyl-1H-3-indenyl-(2-acetamido)ethane]
inhibition at 5 µM [1, 5]: 39%

COCCC1=C(C)/C(=C/c2ccc(S(N)(=O)=O)cc2)c2ccc(F)cc21 [Z CH2CH2OCH3 / SO2NH2 / F, Z 1-(4-aminosulfonylphenyl)methylene-5-fluoro-2-methyl-1H-3-indenyl-(2-methoxy)ethane]
inhibition at 5 µM ([1]; read-out: % Inhibition of PAF Receptor): 29%

COc1ccc2c(c1)C(CCSc1ccccc1)=C(C)/C2=C/c1ccc(S(N)(=O)=O)cc1 [Z CH2CH2SC6H5 / SO2NH2 / OCH3, Z 1-(4-aminosulfonylphenyl)methylene-5-methoxy-2-methyl-1H-3-indenyl-(2-phenylthio)ethane]
inhibition at 5 µM [1, 5]: 33%

COc1ccc2c(c1)C(CC[S+](C)[O-])=C(C)/C2=C/c1ccc(S(N)(=O)=O)cc1 (stereo not drawn) [Z CH2CH2SOCH3 / SO2NH2 / OCH3, Z 1-(4-aminosulfonylphenyl)methylene-5-methoxy-2-methyl-1H-3-indenyl-(2-methylsulfinyl)ethane]
inhibition at 5 µM [1, 5]: 56%

COC(=O)CC1=C(C)/C(=C/c2ccc(NS(C)(=O)=O)cc2)c2ccc(OC)cc21 [Z CH2COOCH3 / NHSO2CH3 / OCH3, Z methyl 1-(4-(N-mesylaminophenyl))methylene-5-methoxy-2-methyl-1H-3-indenylacetate]
inhibition at 3 µM ([1]; Table II, Z (cis)): 35% | inhibition at 10 µM [1, 6]: 72%

COC(=O)CC1=C(C)/C(=C/c2ccc(S(N)(=O)=O)cc2)c2ccc(OC)cc21 [Z CH2COOCH3 / SO2NH2 / OCH3, Z methyl 1-(4-aminosulfonylphenyl)methylene-5-methoxy-2-methyl-1H-3-indenylacetate]
inhibition at 1 µM [1, 6]: 39% | inhibition at 3 µM ([1]; Table II, Z (cis)): 58% | inhibition at 5 µM [1, 5]: 66% | inhibition at 10 µM [1, 6]: 75% | inhibition at 20 µM ([1]; Table II, Z (cis)): 100% | inhibition at 50 µM ([1]; Table II, Z (cis)): 100%

COC(=O)CC1=C(C)/C(=C/c2ccc(S(=O)(=O)NC(=N)N)cc2)c2ccc(OC)cc21 [Z CH2COOCH3 / SONHC(NH)NH2 / OCH3]
inhibition at 1 µM [1, 6]: 50%

COc1ccc2c(c1)C(CC(=O)O)=C(C)/C2=C/c1ccc(S(N)(=O)=O)cc1 [Z CH2COOH / SO2NH2 / OCH3, 1-(4-aminosulfonylphenyl)methylene-5-methoxy-2-methyl-1H-3-indenylacetic acid]
inhibition at 5 µM [1, 5]: 32% | inhibition at 20 µM ([1]; Table II, Z (cis)): 57% | inhibition at 50 µM ([1]; Table II, Z (cis)): 94%

CCOc1ccc2c(c1)C(CC(=O)O)=C(C)/C2=C/c1ccc([S+](C)[O-])cc1 (stereo not drawn) [Z CH2COOH / SOCH3 / OC2H5]
inhibition at 5 µM [1, 5]: 42%

COc1ccc2c(c1)C(CCn1ccnc1)=C(C)/C2=C/c1ccc(S(N)(=O)=O)cc1 [Z drawing 18 / SO2NH2 / OCH3, Z 1-(4-aminosulfonylphenyl)methylene-5-methoxy-2-methyl-1H-3-indenyl-[2-(N-imidazolyl)]ethane]
inhibition at 5 µM [1, 5]: 68%
